Source: PubChem BioAssay AID1259407 (Chemical Carcinogenesis Research Information System (CCRIS), 2018)
Calls of active or inactive are those of the source. No rule for the calls is given here.

Test system: CCRIS mutagenicity, Ames/micronucleus/aberration tests
Assay: CCRIS mutagenicity studies
[1] = Test System: AMES SALMONELLA TYPHIMURIUM, Strain/Indicator: TA98, Metabolic Activation: NONE, Method: STANDARD PLATE
[2] = Test System: AMES SALMONELLA TYPHIMURIUM, Strain/Indicator: TA100, Metabolic Activation: NONE, Method: STANDARD PLATE
[3] = Test System: AMES SALMONELLA TYPHIMURIUM, Strain/Indicator: TA100, Metabolic Activation: RAT, LIVER, S-9, AROCLOR 1254, Method: STANDARD PLATE
[4] = Test System: AMES SALMONELLA TYPHIMURIUM, Strain/Indicator: TA1535, Metabolic Activation: NONE, Method: STANDARD PLATE
[5] = Test System: AMES SALMONELLA TYPHIMURIUM, Strain/Indicator: TA1535, Metabolic Activation: RAT, LIVER, S-9, AROCLOR 1254, Method: STANDARD PLATE
[6] = Test System: AMES SALMONELLA TYPHIMURIUM, Strain/Indicator: TA1537, Metabolic Activation: NONE, Method: STANDARD PLATE
[7] = Test System: AMES SALMONELLA TYPHIMURIUM, Strain/Indicator: TA1537, Metabolic Activation: RAT, LIVER, S-9, AROCLOR 1254, Method: STANDARD PLATE
[8] = Test System: AMES SALMONELLA TYPHIMURIUM, Strain/Indicator: TA1538, Metabolic Activation: NONE, Method: STANDARD PLATE
[9] = Test System: AMES SALMONELLA TYPHIMURIUM, Strain/Indicator: TA1538, Metabolic Activation: RAT, LIVER, S-9, AROCLOR 1254, Method: STANDARD PLATE

CN(C)c1ccc(C(=O)c2ccc(N(C)C)cc2)cc1
mutagenic call (Test System: AMES SALMONELLA TYPHIMURIUM, Strain/Indicator: TA98, Metabolic Activation: MOUSE, LIVER, S-9, AROCLOR 1254, Method: STANDARD PLATE): inactive; negative
mutagenic call (Test System: AMES SALMONELLA TYPHIMURIUM, Strain/Indicator: TA98, Metabolic Activation: MOUSE, LIVER, S-9, Method: STANDARD PLATE): inactive; negative
mutagenic call [1]: inactive; negative
mutagenic call (Test System: AMES SALMONELLA TYPHIMURIUM, Strain/Indicator: TA98, Metabolic Activation: RAT, LIVER, S-9, Method: STANDARD PLATE): inactive; negative
mutagenic call (Test System: AMES SALMONELLA TYPHIMURIUM, Strain/Indicator: TA100, Metabolic Activation: HAMSTER, LIVER, S-9, AROCLOR 1254, Method: STANDARD PLATE): inactive; negative
mutagenic call (Test System: AMES SALMONELLA TYPHIMURIUM, Strain/Indicator: TA100, Metabolic Activation: HAMSTER, LIVER, S-9, Method: STANDARD PLATE): inactive; negative
mutagenic call (Test System: AMES SALMONELLA TYPHIMURIUM, Strain/Indicator: TA100, Metabolic Activation: MOUSE, LIVER, S-9, Method: STANDARD PLATE): inactive; negative
mutagenic call [2]: inactive; negative
mutagenic call [3]: inactive; negative
mutagenic call (Test System: AMES SALMONELLA TYPHIMURIUM, Strain/Indicator: TA100, Metabolic Activation: RAT, LIVER, S-9, Method: STANDARD PLATE): inactive; negative
mutagenic call (Test System: AMES SALMONELLA TYPHIMURIUM, Strain/Indicator: TA1535, Metabolic Activation: HAMSTER, LIVER, S-9, AROCLOR 1254, Method: STANDARD PLATE): inactive; negative
mutagenic call (Test System: AMES SALMONELLA TYPHIMURIUM, Strain/Indicator: TA1535, Metabolic Activation: HAMSTER, LIVER, S-9, Method: STANDARD PLATE): inactive; negative
mutagenic call (Test System: AMES SALMONELLA TYPHIMURIUM, Strain/Indicator: TA1535, Metabolic Activation: MOUSE, LIVER, S-9, AROCLOR 1254, Method: STANDARD PLATE): inactive; negative
mutagenic call (Test System: AMES SALMONELLA TYPHIMURIUM, Strain/Indicator: TA1535, Metabolic Activation: MOUSE, LIVER, S-9, Method: STANDARD PLATE): inactive; negative
mutagenic call [4]: inactive; negative
mutagenic call [5]: inactive; negative
mutagenic call (Test System: AMES SALMONELLA TYPHIMURIUM, Strain/Indicator: TA1535, Metabolic Activation: RAT, LIVER, S-9, Method: STANDARD PLATE): inactive; negative
mutagenic call (Test System: AMES SALMONELLA TYPHIMURIUM, Strain/Indicator: TA1537, Metabolic Activation: HAMSTER, LIVER, S-9, AROCLOR 1254, Method: STANDARD PLATE): inactive; negative
mutagenic call (Test System: AMES SALMONELLA TYPHIMURIUM, Strain/Indicator: TA1537, Metabolic Activation: MOUSE, LIVER, S-9, AROCLOR 1254, Method: STANDARD PLATE): inactive; negative
mutagenic call (Test System: AMES SALMONELLA TYPHIMURIUM, Strain/Indicator: TA1537, Metabolic Activation: MOUSE, LIVER, S-9, Method: STANDARD PLATE): inactive; negative
mutagenic call [6]: inactive; negative
mutagenic call [7]: inactive; negative
mutagenic call (Test System: AMES SALMONELLA TYPHIMURIUM, Strain/Indicator: TA1537, Metabolic Activation: RAT, LIVER, S-9, Method: STANDARD PLATE): inactive; negative
mutagenic call (Test System: AMES SALMONELLA TYPHIMURIUM, Strain/Indicator: TA1538, Metabolic Activation: MOUSE, LIVER, S-9, Method: STANDARD PLATE): inactive; negative
mutagenic call [8]: inactive; negative
mutagenic call (Test System: AMES SALMONELLA TYPHIMURIUM, Strain/Indicator: TA1538, Metabolic Activation: RAT, LIVER, S-9, Method: STANDARD PLATE): inactive; negative
mutagenic call (Test System: E. COLI, Strain/Indicator: WP2 UVRA, Metabolic Activation: HAMSTER, LIVER, S-9, AROCLOR 1254, Method: STANDARD PLATE): inactive; negative
mutagenic call (Test System: E. COLI, Strain/Indicator: WP2 UVRA, Metabolic Activation: HAMSTER, LIVER, S-9, Method: STANDARD PLATE): inactive; negative
mutagenic call (Test System: E. COLI, Strain/Indicator: WP2 UVRA, Metabolic Activation: MOUSE, LIVER, S-9, AROCLOR 1254, Method: STANDARD PLATE): inactive; negative
mutagenic call (Test System: E. COLI, Strain/Indicator: WP2 UVRA, Metabolic Activation: MOUSE, LIVER, S-9, Method: STANDARD PLATE): inactive; negative
mutagenic call (Test System: E. COLI, Strain/Indicator: WP2 UVRA, Metabolic Activation: NONE, Method: STANDARD PLATE): inactive; negative
mutagenic call (Test System: E. COLI, Strain/Indicator: WP2 UVRA, Metabolic Activation: RAT, LIVER, S-9, AROCLOR 1254, Method: STANDARD PLATE): inactive; negative
mutagenic call (Test System: E. COLI, Strain/Indicator: WP2 UVRA, Metabolic Activation: RAT, LIVER, S-9, Method: STANDARD PLATE): inactive; negative

CCN(CC)c1ccc2c(C(F)(F)F)cc(=O)oc2c1
mutagenic call [8]: inactive; negative
mutagenic call [9]: inactive; negative

NC1CCN(c2nc3c(cc2F)c(=O)c(C(=O)O)cn3-c2ccc(F)cc2F)C1 (configuration not stated)
mutagenic call (Test System: AMES SALMONELLA TYPHIMURIUM, Strain/Indicator: TA102, Metabolic Activation: NONE, Method: STANDARD PLATE): active; positive

c1ccc2c(c1)Cc1ccccc1-2
mutagenic call (End Point: IN VITRO CHROMOSOMAL ABERRATIONS, Test System: CHINESE HAMSTER LUNG (CHL) CELLS, Metabolic Activation: NONE): inactive; negative
mutagenic call (End Point: IN VITRO CHROMOSOMAL ABERRATIONS, Test System: CHINESE HAMSTER LUNG (CHL) CELLS, Metabolic Activation: RAT, LIVER, S-9, KC-400): active; positive
mutagenic call (End Point: IN VITRO MICRONUCLEUS, Test System: CHO CELLS, Metabolic Activation: RAT, LIVER, S-9, AROCLOR 1254): inactive; negative
mutagenic call (Test System: AMES SALMONELLA TYPHIMURIUM, Strain/Indicator: TA97, Metabolic Activation: NONE, Method: STANDARD PLATE): inactive; negative
mutagenic call (Test System: AMES SALMONELLA TYPHIMURIUM, Strain/Indicator: TA97, Metabolic Activation: RAT, LIVER, S-9, PCB, Method: STANDARD PLATE): inactive; negative
mutagenic call [1]: inactive; negative
mutagenic call (Test System: AMES SALMONELLA TYPHIMURIUM, Strain/Indicator: TA98, Metabolic Activation: RAT, LIVER, S-9, PCB, Method: STANDARD PLATE): inactive; negative
mutagenic call [2]: inactive; negative
mutagenic call (Test System: AMES SALMONELLA TYPHIMURIUM, Strain/Indicator: TA100, Metabolic Activation: RAT, LIVER, S-9, PCB, Method: STANDARD PLATE): inactive; negative
mutagenic call (Test System: MOUSE LYMPHOMA, Strain/Indicator: L5178Y (TK+/TK-), Metabolic Activation: NONE, Method: SUSPENSION/PLATE): active; positive
mutagenic call (Test System: MOUSE LYMPHOMA, Strain/Indicator: L5178Y (TK+/TK-), Metabolic Activation: RAT, LIVER, S-9, AROCLOR 1254, Method: SUSPENSION/PLATE): active; positive
mutagenic call (Test System: UDS RAT HEPATOCYTES, Strain/Indicator: BROMODEOXYURIDINE INCORP, Metabolic Activation: NONE, Method: FLOW CYTOMETRIC ANALYSIS): inactive; negative

COc1cc(-c2ccc(-[n+]3nc(-c4ccccc4)nn3-c3ccc([N+](=O)[O-])cc3)c(OC)c2)ccc1-[n+]1nc(-c2ccccc2)nn1-c1ccc([N+](=O)[O-])cc1
mutagenic call [2]: active; positive
mutagenic call (Test System: AMES SALMONELLA TYPHIMURIUM, Strain/Indicator: TA100, Metabolic Activation: S-9 MIX, Method: STANDARD PLATE): active; positive

O=[N+]([O-])C1=Cc2c3ccc4ccccc4c3cc3cccc1c23
mutagenic call [1]: active; positive
mutagenic call (Test System: AMES SALMONELLA TYPHIMURIUM, Strain/Indicator: TA98, Metabolic Activation: RAT, LIVER, S-9, AROCLOR 1254, Method: STANDARD PLATE): active; positive
mutagenic call [2]: inactive; negative
mutagenic call [3]: inactive; negative
mutagenic call [4]: inactive; negative
mutagenic call [5]: inactive; negative
mutagenic call [6]: active; positive
mutagenic call [7]: active; positive
mutagenic call [8]: active; positive
mutagenic call [9]: inactive; negative

O=C(O)/C=C/c1ccc(Cl)cc1
mutagenic call (Test System: AMES SALMONELLA TYPHIMURIUM, Strain/Indicator: TA100, Metabolic Activation: NONE, Method: PREINCUBATION): inactive; negative
mutagenic call (Test System: AMES SALMONELLA TYPHIMURIUM, Strain/Indicator: TA100, Metabolic Activation: RAT, LIVER, S-9, AROCLOR 1254, Method: PREINCUBATION): inactive; negative
